Source: patent US12419839B2, “Methods and compositions for targeted delivery of protein fragments” (Signablok, Inc., priority 2009, dated 2025)
Where no end group is shown, it is not given here.

Assays:
A549 xenograft = A549 xenograft mouse model of NSCLC; format: in vivo; conditions: compared to the vehicle-treated group
Source text: FIG. 16 presents exemplary data showing that in drug-containing synthetic (recombinant) HDL (SLP, LPC), apolipoprotein can be replaced by synthetic apolipoprotein fragments without compromising the drug antitumor activity in an animal model. Bars, SEM. For statistical analysis, each treatment was compared with the vehicle control using Student's t test. **, P 0.001 to 0.01. Abbreviations: apo, apolipoprotein; HDL, high density lipoproteins; HDL (A-Iox), HDL with oxidized human apo A-I; HDL (PE22ox+PA22ox), HDL with a 1:1 mixture of synthetic peptides PE22ox and PA22ox that correspond to apo A-I helixes 4 and 6, respectively (SEE FIG. 12); dHDL and sHDL, discoidal and spherical HDL, respectively; LPC, lipoprotein/lipopeptide complexes; NSCLC, non-small cell lung cancer; PTX, paclitaxel; SLP, synthetic lipoprotein/lipopeptide particles; TREM-1, triggering receptor expressed on myeloid cells-1.
See, FIGS. 15 and 16. Here, A549 cells were injected subcutaneously into nude mice and randomized into treatment groups (n=10) once tumors reached an average of 200 mm^3. The treatment groups were: i) Vehicle (HDL containing no GF9); ii) paclitaxel (PTX) as a positive control; iii) GF9-dHDL (A-Iox); iv) GF9-sHDL (A-Iox); v) GF9-dHDL(PE22ox+PA22ox); and vi) GF9-sHDL(PE22ox+PA22ox) where each group received intraperitoneal injections twice a week. […]

[1] = tested on: GM-CSF, IFNγ, IL-1β, IL-2, IL-6, IL-17, M-CSF and TNFα; experiment: serum cytokines in mice with CIA; format: in vivo; conditions: serum on day 38; MG11 and MG11-2G 25 mg/kg, sHDL-bound MG11 2.5 mg/kg; vs vehicle
mice with CIA = conditions: sHDL-bound MG11 2.5 mg/kg

With CC(=O)O[C@H]1C(=O)[C@@]2(C)[C@H]([C@H](OC(=O)c3ccccc3)[C@]3(O)C[C@H](OC(=O)[C@H](O)[C@@H](NC(=O)c4ccccc4)c4ccccc4)C(C)=C1C3(C)C)[C@]1(OC(C)=O)CO[C@@H]1C[C@@H]2O [PTX, paclitaxel] the “post necropsy excised tumors weights” value (A549 xenograft) was “significantly lower”.

In the case of MWGTPTLGYFG [MG11-2G], the serum cytokine release [1] was “no effect” and the “clinical severity of CIA” value (mice with CIA; i.p. daily for 14 days from day 24, MG11 and MG11-2G 25 mg/kg, vs vehicle) was “no effect”.

MWKTPTLKYFG [free MG11, MWKTPTLKYFG] was tested, and the body weight (mice with CIA; i.p. daily for 14 days, MG11 25 mg/kg) was “without affecting body weight”.
